“Also recorded” adds a separate entry of the source.
Legend:
Assay type in all cases: physicochemical
[1] = Hygroscopicity by dynamic vapor sorption (DVS) isothermal sorption; conditions: for Weight change within 20%-80% RH range: DVS isothermal sorption, relative humidity 20%-80%; for Hygroscopicity in words (compared to Form I): from DVS weight change within 20-80% RH
Method: Dynamic vapor sorption (DVS) data were collected using TA Instruments Q500 TGA. The instrument control software was Thermal Advantage, and the analytical software was Universal Analysis. Usually, 1-10 mg of the sample was placed in a platinum pan, and the weight change of the sample during studies was recorded. The relative humidity was usually programed to change from 50% to 80% to 0% and then back to 50%, and an isothermal sorption plot could be generated. Depending on specific situations, different sorption and desorption procedures might be used. Hygroscopicity comparison: DVS isothermal sorption curves were used, and weight changes within the 20%-80% RH range were measured.

[2] = Competitive slurry of Form IX and Form I in mixed solvents of ethanol and water, solids characterized by XRPD; conditions: equal quantity (4 mg) of Form IX and Form I in 1 mL ethanol and water (1:1, 1:4, 1:5 and 1:10), room temperature, 7 days
[3] = Competitive slurry 1 in nitromethane, solids characterized by XRPD; conditions: equal quantity (5 mg) of Form I, II, III, IV and VIII in nitromethane, room temperature, 7 days
From the text: (§1) The slurry method described in the present invention refers to stirring of a supersaturated solution of the sample (with undissolved solids) in various solvent systems for crystallization. Usually, the duration is 14 days.

[4] = Competitive slurry 2 in mixed solvent of isopropanol and water, solids characterized by XRPD; conditions: equal quantity (5 mg) of Form VI and Form IX in 1 mL isopropanol and water (1:4, v/v), room temperature, 7 days
From the text: as §1

SMILES | Weight change within 20%-80% RH range [1] [%] | Competitive slurry 1: crystal form after slurry [3] | Hygroscopicity in words (compared to Form I) ([1]; listed as Form. IX) | Competitive slurry: crystal form after slurry [2] | Hygroscopicity in words (compared to Form I) [1] | Competitive slurry 2: crystal form after slurry [4]
CC[C@H](Nc1ncnc2[nH]cnc12)c1nc2cccc(F)c2c(=O)n1-c1ccccc1 [Form I, 5-fluoro-3-phenyl-2-[(S)-1-(9H-purin-6-ylamino)-propyl]-3H-quinazoline-4-one, reference compound] | 0.95 | transformed into Form III | – | transformed into Form IX | – | –
CC[C@H](Nc1ncnc2[nH]cnc12)c1nc2cccc(F)c2c(=O)n1-c1ccccc1 [Form II, 5-fluoro-3-phenyl-2-[(S)-1-(9H-purin-6-ylamino)-propyl]-3H-quinazoline-4-one] | 0.46 | transformed into Form III | – | – | less hygroscopic | –
CC[C@H](Nc1ncnc2[nH]cnc12)c1nc2cccc(F)c2c(=O)n1-c1ccccc1 [Form III, 5-fluoro-3-phenyl-2-[(S)-1-(9H-purin-6-ylamino)-propyl]-3H-quinazoline-4-one] | 0.44 | thermodynamically the most stable form; also recorded: III remained unchanged | – | – | less hygroscopic | –
CC[C@H](Nc1ncnc2[nH]cnc12)c1nc2cccc(F)c2c(=O)n1-c1ccccc1 [Form IV, 5-fluoro-3-phenyl-2-[(S)-1-(9H-purin-6-ylamino)-propyl]-3H-quinazoline-4-one] | 0.27 | transformed into Form III | – | – | less hygroscopic; also recorded: least hygroscopicity; also recorded: low hygroscopicity | –

Continued, in another order:

Weight change within 20%-80% RH range [1] [%] | Competitive slurry 1: crystal form after slurry [3] | Hygroscopicity in words (compared to Form I) ([1]; listed as Form. IX) | SMILES | Competitive slurry: crystal form after slurry [2] | Hygroscopicity in words (compared to Form I) [1] | Competitive slurry 2: crystal form after slurry [4]
0.3 | – | low hygroscopicity | CC[C@H](Nc1ncnc2[nH]cnc12)c1nc2cccc(F)c2c(=O)n1-c1ccccc1 [Form IX, 5-fluoro-3-phenyl-2-[(S)-1-(9H-purin-6-ylamino)-propyl]-3H-quinazoline-4-one] | more stable; also recorded: remained unchanged; also recorded: unchanged, while Form I | less hygroscopic; also recorded: lower hygroscopicity; also recorded: least hygroscopicity | transformed into Form VI; also recorded: Form VI, while Form VI
0.57 | – | – | CC[C@H](Nc1ncnc2[nH]cnc12)c1nc2cccc(F)c2c(=O)n1-c1ccccc1 [Form VI, 5-fluoro-3-phenyl-2-[(S)-1-(9H-purin-6-ylamino)-propyl]-3H-quinazoline-4-one] | – | lower hygroscopicity; also recorded: less hygroscopic | remained unchanged
0.84 | transformed into Form III | – | CC[C@H](Nc1ncnc2[nH]cnc12)c1nc2cccc(F)c2c(=O)n1-c1ccccc1 [Form VIII, 5-fluoro-3-phenyl-2-[(S)-1-(9H-purin-6-ylamino)-propyl]-3H-quinazoline-4-one] | – | less hygroscopic; also recorded: low hygroscopicity | –

Reference: patent publication US20160145258A1, “Inhibitor Crystalline Form and Preparation Method and Use Thereof” (Hangzhou Pushai Pharmaceutical Technology Co., LTD., priority 2013, published 2016)
